Reference: US9040725B2, “Benzocycloheptane and benzoxepine derivatives” (Janssen Pharmaceutica NV, priority 2008, dated 2015)
Structures can show the parent of a compound that is named as a salt. Where two headings read alike, the source gives them in different places.

Columns and labels:
NMRI-mice = assay: Acceleration of gastric emptying and small intestinal propulsion in NMRI-mice; assay type: in vivo; conditions: for minimal effective dose: Mus musculus, sc
Method: Male NMRI-mice weighing around 25 gram were fasted for 20 h and had free access to drinking water. Test compounds were administered to the animals by subcutaneous route 30 min before they were given a test meal by oral gavage. The test meal consisted of 0.3 ml of a chocolate nutridrink solution (1.0 kcal/ml) containing phenol red marker (5 mg/ml). Fifteen min after administration of the meal, the mice were sacrificed by CO2 gas inhalation. The phenol red content remaining in the stomach (extracted from the stomach with NaOH) was determined at 557 nm in a spectrophotometer and expressed as extinction units. Small intestinal propulsion was determined as the distance traveled by the phenol red marker through the intestine and expressed as a percentage of total small intestinal length (from the pylorus to the ileo-cecal junction).
The lowest dose that was active for each parameter was noted as the lowest active dose (LAD). Table 12 discloses LAD values.

GHS1A-receptor = biological target: T1, GHS1A-receptor (Homo sapiens, UniProt Q92847); assay: Ghrelin-agonism in HEK293 cells (intracellular calcium, FLIPR); assay type: cell-based; conditions: calcium fluorescence (fluo-4 or Kit-3), EC50 in M
T1 construct: expressed in transfected cells; host or cells: HEK293
T1 sequence (Q92847 whole entry): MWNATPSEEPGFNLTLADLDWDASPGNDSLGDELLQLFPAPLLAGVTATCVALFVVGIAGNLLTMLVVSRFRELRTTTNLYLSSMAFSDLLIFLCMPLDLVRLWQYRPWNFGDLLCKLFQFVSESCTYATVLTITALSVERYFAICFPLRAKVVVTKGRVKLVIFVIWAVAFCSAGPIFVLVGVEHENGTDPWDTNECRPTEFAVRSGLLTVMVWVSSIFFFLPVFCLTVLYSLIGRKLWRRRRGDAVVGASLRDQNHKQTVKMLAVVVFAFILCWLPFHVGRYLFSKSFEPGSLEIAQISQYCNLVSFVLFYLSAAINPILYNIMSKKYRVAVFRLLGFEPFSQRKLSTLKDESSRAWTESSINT
Method: One day before the experiment, HEK293 cells, permanently transfected with the gene sequence for expression of the GHS1A-receptor, were seeded in poly-D-Lysine coated 96-well plates with clear bottom, and allowed to grow to […] of confluence on the next day.
Then, cells were incubated with the calcium-sensitive intracellular fluorescent probe fluo-4 or Kit-3 for 1 h at 37° C. Fluorescence representing free intracellular calcium in the cells was measured in a FLIPR-system (excitation at 488 nm, emission>520 nm). Test compounds were added to each well at the desired concentration and the fluorescence signal was simultaneously recorded in all wells. Release of intracellular calcium triggered by activation of the receptors upon addition of the test compound was measured as the fluorescence emitted from the complex of calcium and the fluorescent probe. The drug effect on fluorescence intensity was expressed relative to the maximal fluorescence intensity measured in cells exposed to the calcium-ionophore ionomycin.

[1] = lowest active dose, subcutaneous, 30 min before phenol red test meal, active when >60% of animals had phenol red front beyond 85% of small intestinal length, read-out: LAD (mg/kg) Small intestinal propulsion
[2] = lowest active dose, subcutaneous, 30 min before phenol red test meal, stomach content 15 min after meal, active when >60% of animals below 0.9 extinction units, read-out: LAD (mg/kg) Gastric emptying
[3] = HEK293 cells permanently transfected with GHS1A-receptor, read-out: pEC50 (converted)

Compound | EC50 (GHS1A-receptor; [3]) | other results
CNCCCC1(O)c2ccccc2CCCC1c1cccc(C)c1 (racemic) [Compound 22] | 39.8 nM | minimal effective dose (NMRI-mice; [1]): > 10 mg/kg; minimal effective dose (NMRI-mice; [2]): > 10 mg/kg
CCN(CC)CCCC1(O)c2ccccc2CCCC1c1ccc(F)cc1 (racemic) [Compound 53] | 20 nM | minimal effective dose (NMRI-mice; [1]): > 10 mg/kg; minimal effective dose (NMRI-mice; [2]): > 10 mg/kg
COCCN(C)CCCC1(O)c2ccccc2CCCC1c1ccc(OC)cc1 (racemic) [Compound 70] | 1260 nM | 
Cc1ccc([C@H]2CCOc3ccccc3[C@]2(O)CCCN(C)C)cn1 (racemic) [Compound 9] | 794 nM | 
Cc1ccc(C2CCOc3ccccc3C2(O)CCCN(C)C)cc1 (racemic) [Compound 92] | 63.1 nM | minimal effective dose (NMRI-mice; [1]): > 10 mg/kg; minimal effective dose (NMRI-mice; [2]): > 10 mg/kg
COc1cncc(C2CCOc3ccccc3C2(O)CCCN(C)C)c1 (racemic) [Compound 100] | 3980 nM | 
CN(CCCC1(O)c2ccccc2CCCC1c1ccc(Cl)cc1)Cc1ccccc1 (racemic) [Compound 47] | 5010 nM | 
Cc1ccc(C2CCCc3ccccc3C2(O)CCCN2CCCCC2)cc1 (racemic) [Compound 32] | 1000 nM | 
OC1(CCCN2CCCC2)c2ccccc2CCCC1c1ccc(Cl)cc1 (racemic) [Compound 48] | 31.6 nM | minimal effective dose (NMRI-mice; [1]): > 10 mg/kg; minimal effective dose (NMRI-mice; [2]): > 10 mg/kg
CCN(CC)CCCC1(O)c2ccccc2OCCC1c1ccc(C)cc1 (racemic) [Compound 93] | 63.1 nM | minimal effective dose (NMRI-mice; [1]): 10 mg/kg; minimal effective dose (NMRI-mice; [2]): > 10 mg/kg
COc1cccc(C2CCCc3ccccc3C2(O)CCCN(C)Cc2ccccc2)c1 (racemic) [Compound 62] | 2510 nM | 
Cc1ccc([C@H]2CCCc3ccccc3[C@]2(O)CCCN(C)C)cn1 [Compound 12] | 251 nM | minimal effective dose (NMRI-mice; [1]): > 10 mg/kg; minimal effective dose (NMRI-mice; [2]): > 10 mg/kg
OC1(CCCN2CCCCC2)c2ccccc2CCCC1c1ccc(Cl)cc1 (racemic) [Compound 50] | 794 nM | 
CN(C)CCC[C@@]1(O)c2ccccc2OCC[C@@H]1c1ccccc1 (relative stereo) [Compound 8] | 316 nM | 
CCN(CC)CCCC1(O)c2ccccc2OCCC1c1ccc(OC)nc1 (racemic) [Compound 103] | 6310 nM | 
CN(C)CCCC1(O)c2ccccc2CCCC1c1ccc(F)cc1 (racemic) [Compound 52] | 12.6 nM | minimal effective dose (NMRI-mice; [1]): > 10 mg/kg; minimal effective dose (NMRI-mice; [2]): > 10 mg/kg
COc1cccc([C@H]2CCCc3ccccc3[C@]2(O)CCCN(C)C)c1 (racemic) [Compound 14, (±)cis-5-(3-Dimethylamino-propyl)-6-(3-methoxy-phenyl)-6,7,8,9-tetrahydro-5H-benzocyclohepten-5-ol oxalate] |  | minimal effective dose (NMRI-mice; read-out: LAD (mg/kg) Gastric emptying): 10 mg/kg; minimal effective dose (NMRI-mice; read-out: LAD (mg/kg) Small intestinal propulsion): > 10 mg/kg; EC50 (GHS1A-receptor; pEC50, HEK293 cells permanently transfected with GHS1A-receptor): 12.6 nM
COc1ccc(C2CCCc3ccccc3C2(O)CCCN(C)C)cc1 (racemic) [Compound 66] | 251 nM | minimal effective dose (NMRI-mice; [1]): 10 mg/kg; minimal effective dose (NMRI-mice; [2]): > 10 mg/kg
CCN(CC)CCCC1(O)c2ccccc2CCCC1c1ccc(OC)c(OC)c1 (racemic) [Compound 78] | 398 nM | minimal effective dose (NMRI-mice; [1]): > 10 mg/kg; minimal effective dose (NMRI-mice; [2]): > 10 mg/kg
COc1ccc(C2CCCc3ccccc3C2(O)CCCN)cc1 (racemic) [Compound 64] | 25100 nM | 
CN(C)CCCC1(O)c2ccccc2CCCC1c1ccc(Cl)cc1 (single isomer, unassigned) [Compound 6] | 10 nM | 
Cc1cccc(C2CCCc3ccccc3C2(O)CCCN(C)Cc2ccccc2)c1 (racemic) [Compound 24] | 3980 nM | 
OC1(CCCN2CCCCC2)c2ccccc2CCCC1c1ccc(F)cc1F (racemic) [Compound 59] | > 10000 nM | 
Cc1ccc(C2CCCc3ccccc3C2(O)CCCN2CCN(C)CC2)cc1 (racemic) [Compound 33] | 3160 nM | 
OC1(CCCN2CCNCC2)c2ccccc2CCCC1c1ccc(Cl)cc1 (racemic) [Compound 51] | 1580 nM | 
COc1ccc(C2CCCc3ccccc3C2(O)CCCNCc2ccccc2)cc1 (racemic) [Compound 68] | > 31600 nM | 

Compound | EC50 (GHS1A-receptor; [3]) | other results
CN(C)CCCC1(O)c2ccccc2CCCC1c1ccccc1 (single isomer, unassigned) [Compound 104] | 2000 nM | 
CO[C@]1(CCCN(C)C)c2ccccc2CCC[C@@H]1c1ccc(Cl)cc1 (racemic) [Compound 15] | 1580 nM | 
CN1CCN(CCCC2(O)c3ccccc3CCCC2c2ccc(F)cc2)CC1 (racemic) [Compound 55] | 1580 nM | 
COCCN(C)CCCC1(O)c2ccccc2CCCC1c1ccc(OC)c(OC)c1 (racemic) [Compound 79] | 2000 nM | 
COCCN(C)CCCC1(O)c2ccccc2CCCC1c1ccc(Cl)c(OC)c1 (racemic) [Compound 75] | 15.8 nM | 
Cc1ccc([C@H]2CCOc3ccccc3[C@]2(O)CCCN(C)Cc2ccccc2)cc1 (racemic) [Compound 10] | 251 nM | 
COc1ccc(C2CCCc3ccccc3C2(O)CCCN(C)Cc2ccccc2)cc1 (racemic) [Compound 69] | > 10000 nM | 
COc1ccc(C2CCCc3ccccc3C2(O)CCCN(C)C)cc1OC (racemic) [Compound 77] | 794 nM | 
CC(=O)N1CCN(CCCC2(O)c3ccccc3CCCC2c2cccc(C)c2)CC1 (racemic) [Compound 26] | 3160 nM | 
Cc1cccc(C2CCCc3ccccc3C2(O)CCCN2CCOCC2)c1 (racemic) [Compound 25] | 1580 nM | 
Oc1ccc([C@H]2CCCc3ccccc3[C@]2(O)CCCN2CCOCC2)cc1 (racemic) [Compound 7] | > 10000 nM | 
CCN(CC)CCCC1(O)c2ccccc2CCCC1c1cccc(OC)c1 (racemic) [Compound 61] | 25.1 nM | 
CNCCCC1(O)c2ccccc2CCCC1c1ccc(OC)c(OC)c1 (racemic) [Compound 76] | 1580 nM | 
OC1CCN(CCCC2(O)c3ccccc3CCCC2c2ccc(Cl)cc2)C1 (racemic) [Compound 49] | 79.4 nM | 
COCCN(C)CCCC1(O)c2ccccc2CCCC1c1ccc2c(c1)OCO2 (racemic) [Compound 90] | 158 nM | 
OC1CCN(CCCC2(O)c3ccccc3CCCC2c2ccc3c(c2)OCO3)C1 (racemic) [Compound 91] | 1000 nM | 
CCN(CC)CCCC1(O)c2ccccc2CCCC1c1ccc(C)cc1 (racemic) [Compound 31] | 25.1 nM | 
COCCN(C)CCCC1(O)c2ccccc2CCCC1c1ccc(O)cc1 (racemic) [Compound 37] | 2000 nM | 
CC(C)NCCCC1(O)c2ccccc2CCCC1c1ccc(Cl)cc1 (racemic) [Compound 45] | 794 nM | 
CN(C)CCCC1(O)c2ccccc2CCCC1c1ccc(Cl)cc1 (single isomer, unassigned) [Compound 5] | 1000 nM | 
CNCCCC1(O)c2ccccc2CCCC1c1ccc(OC)cc1 (racemic) [Compound 65] | 794 nM | 
CN(CCCC1(O)c2ccccc2CCCC1c1cnc2ccccc2c1)Cc1ccccc1 (racemic) [Compound 87] | 1580 nM | 
COCCN(C)CCCC1(O)c2ccccc2CCCC1c1cccc(C)c1 (racemic) [Compound 23] | 31.6 nM | 
CCN(CC)CCCC1(O)c2ccccc2OCCC1c1cncc(OC)c1 (racemic) [Compound 101] | 2000 nM | 
CCNCCCC1(O)c2ccccc2CCCC1c1ccc(Cl)cc1 (racemic) [Compound 44] | 501 nM | 
GHRP-6 [reference compound] |  | LAD (mg/kg) Small intestinal propulsion (NMRI-mice; lowest active dose, subcutaneous, 30 min before phenol red test meal, active when >60% of animals had phenol red front beyond 85% of small intestinal length): 2.5 mg/kg; LAD (mg/kg) Gastric emptying (NMRI-mice; lowest active dose, subcutaneous, 30 min before phenol red test meal, stomach content 15 min after meal, active when >60% of animals below 0.9 extinction units): 0.63 mg/kg
